Each structure is given as a SMILES string. A value given as a limit tells only on which side of the number the result lay.

Assay [1] deals with T1, Androgen receptor (Rattus norvegicus, UniProt P15207).
T1 sequence (P15207 whole entry): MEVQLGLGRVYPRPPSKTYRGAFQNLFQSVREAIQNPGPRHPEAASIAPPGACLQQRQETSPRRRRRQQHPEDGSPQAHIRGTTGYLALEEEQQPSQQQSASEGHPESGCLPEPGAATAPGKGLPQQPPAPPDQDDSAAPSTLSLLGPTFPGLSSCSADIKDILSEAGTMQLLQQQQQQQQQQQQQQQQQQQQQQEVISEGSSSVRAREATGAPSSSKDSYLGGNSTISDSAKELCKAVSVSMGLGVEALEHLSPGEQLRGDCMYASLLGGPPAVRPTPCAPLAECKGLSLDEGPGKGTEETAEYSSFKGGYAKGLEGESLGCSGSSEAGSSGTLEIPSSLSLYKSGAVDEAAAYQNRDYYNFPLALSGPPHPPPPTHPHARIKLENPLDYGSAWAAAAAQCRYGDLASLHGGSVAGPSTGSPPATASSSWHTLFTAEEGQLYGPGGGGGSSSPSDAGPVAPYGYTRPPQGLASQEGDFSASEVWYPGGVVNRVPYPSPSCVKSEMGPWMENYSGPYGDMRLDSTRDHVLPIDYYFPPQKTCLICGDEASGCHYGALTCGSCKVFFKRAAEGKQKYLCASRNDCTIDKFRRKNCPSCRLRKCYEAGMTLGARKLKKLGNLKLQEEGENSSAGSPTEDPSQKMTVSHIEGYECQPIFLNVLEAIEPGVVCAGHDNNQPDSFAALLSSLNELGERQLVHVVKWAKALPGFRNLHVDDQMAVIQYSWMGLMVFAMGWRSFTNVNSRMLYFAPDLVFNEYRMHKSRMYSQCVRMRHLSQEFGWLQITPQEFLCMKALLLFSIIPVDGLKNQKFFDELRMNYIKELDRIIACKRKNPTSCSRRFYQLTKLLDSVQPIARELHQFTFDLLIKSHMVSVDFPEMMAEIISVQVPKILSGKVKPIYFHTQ
It is filed as functional.

Assay [2] has as its target T2, Corticotropin-releasing factor receptor 1 (Homo sapiens, UniProt P34998).
T2 sequence (P34998 whole entry): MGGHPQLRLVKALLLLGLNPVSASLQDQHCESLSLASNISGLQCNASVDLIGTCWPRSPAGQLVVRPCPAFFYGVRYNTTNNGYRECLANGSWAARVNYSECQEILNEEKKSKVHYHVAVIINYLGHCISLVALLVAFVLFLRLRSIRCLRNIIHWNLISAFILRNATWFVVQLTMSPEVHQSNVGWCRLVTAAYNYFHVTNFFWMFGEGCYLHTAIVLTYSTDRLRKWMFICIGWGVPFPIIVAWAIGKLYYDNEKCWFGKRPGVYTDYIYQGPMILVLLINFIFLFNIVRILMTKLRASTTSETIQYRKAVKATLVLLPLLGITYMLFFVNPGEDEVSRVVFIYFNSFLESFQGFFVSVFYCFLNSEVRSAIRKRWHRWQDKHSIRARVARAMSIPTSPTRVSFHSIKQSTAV

Assay [3] concerns the target T3, Corticotropin-releasing factor receptor 2 (Homo sapiens, UniProt Q13324).
T3 sequence (Q13324 whole entry): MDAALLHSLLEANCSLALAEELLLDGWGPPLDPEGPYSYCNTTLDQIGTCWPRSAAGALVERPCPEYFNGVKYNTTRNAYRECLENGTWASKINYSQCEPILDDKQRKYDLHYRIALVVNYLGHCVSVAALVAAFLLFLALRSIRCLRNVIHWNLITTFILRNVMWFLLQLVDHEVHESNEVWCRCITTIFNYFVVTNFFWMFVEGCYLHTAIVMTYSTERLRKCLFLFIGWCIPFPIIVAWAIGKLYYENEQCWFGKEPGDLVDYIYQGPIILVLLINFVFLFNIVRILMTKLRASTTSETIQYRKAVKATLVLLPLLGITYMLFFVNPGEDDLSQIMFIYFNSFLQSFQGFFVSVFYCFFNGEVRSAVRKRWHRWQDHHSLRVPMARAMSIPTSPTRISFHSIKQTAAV

Assay [4] concerns the target 5-hydroxytryptamine receptor 2B (Homo sapiens, UniProt P41595).
Assay [5] addresses T4, Estrogen receptor (Homo sapiens, UniProt P03372).
T4 sequence (P03372 whole entry): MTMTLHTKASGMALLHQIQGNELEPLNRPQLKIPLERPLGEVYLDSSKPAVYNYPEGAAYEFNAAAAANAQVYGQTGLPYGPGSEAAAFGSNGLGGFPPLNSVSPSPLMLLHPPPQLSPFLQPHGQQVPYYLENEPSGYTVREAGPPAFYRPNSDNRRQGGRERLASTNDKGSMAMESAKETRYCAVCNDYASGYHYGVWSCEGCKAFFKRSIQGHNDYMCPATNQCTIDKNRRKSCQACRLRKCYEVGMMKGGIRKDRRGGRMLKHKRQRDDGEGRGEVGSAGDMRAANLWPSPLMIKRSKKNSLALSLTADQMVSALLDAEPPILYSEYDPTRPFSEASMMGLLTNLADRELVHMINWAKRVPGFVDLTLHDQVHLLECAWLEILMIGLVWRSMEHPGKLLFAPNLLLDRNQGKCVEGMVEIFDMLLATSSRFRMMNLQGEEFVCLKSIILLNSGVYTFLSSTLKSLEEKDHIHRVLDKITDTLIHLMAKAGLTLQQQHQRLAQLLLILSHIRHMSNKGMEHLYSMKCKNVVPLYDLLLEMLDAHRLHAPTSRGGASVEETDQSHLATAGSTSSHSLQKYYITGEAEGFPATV

Assay [6] has as its target Histamine H1 receptor (Homo sapiens, UniProt P35367).
Further: assay procedure not described here.

Chain of 5-hydroxytryptamine receptor 2B (P41595 whole entry): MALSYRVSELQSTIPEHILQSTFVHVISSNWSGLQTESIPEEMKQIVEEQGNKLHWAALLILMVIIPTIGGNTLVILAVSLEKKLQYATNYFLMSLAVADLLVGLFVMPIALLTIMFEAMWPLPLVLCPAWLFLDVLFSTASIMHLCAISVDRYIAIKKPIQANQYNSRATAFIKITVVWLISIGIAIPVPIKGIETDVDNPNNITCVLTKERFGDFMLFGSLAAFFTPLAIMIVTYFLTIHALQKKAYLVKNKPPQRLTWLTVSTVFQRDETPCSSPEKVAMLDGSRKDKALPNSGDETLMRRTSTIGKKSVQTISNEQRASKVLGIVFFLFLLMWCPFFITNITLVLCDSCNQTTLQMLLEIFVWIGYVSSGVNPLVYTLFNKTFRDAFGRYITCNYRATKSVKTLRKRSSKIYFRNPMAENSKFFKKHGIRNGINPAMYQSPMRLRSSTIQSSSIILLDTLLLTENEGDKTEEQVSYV
Chain of Histamine H1 receptor (P35367 whole entry): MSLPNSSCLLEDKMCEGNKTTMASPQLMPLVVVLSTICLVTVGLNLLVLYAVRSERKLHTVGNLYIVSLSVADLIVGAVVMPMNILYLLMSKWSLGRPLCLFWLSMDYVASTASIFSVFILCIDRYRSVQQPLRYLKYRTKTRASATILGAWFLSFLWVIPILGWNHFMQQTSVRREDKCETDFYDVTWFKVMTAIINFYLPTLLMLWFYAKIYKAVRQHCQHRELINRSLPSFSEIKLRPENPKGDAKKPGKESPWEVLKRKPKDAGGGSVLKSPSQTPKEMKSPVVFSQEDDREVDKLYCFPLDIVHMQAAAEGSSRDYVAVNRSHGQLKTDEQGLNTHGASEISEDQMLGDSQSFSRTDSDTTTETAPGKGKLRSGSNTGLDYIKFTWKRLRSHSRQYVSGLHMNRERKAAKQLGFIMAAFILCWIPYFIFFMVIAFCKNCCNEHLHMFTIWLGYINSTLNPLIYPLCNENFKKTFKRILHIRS

Broadly, the AC50 is the midpoint of the concentration-response curve, whichever way the signal moves. A low value points to activity at low concentration. Take `CC1(C)S[C@@H]2[C@H](NC(=O)[C@H](N)c3ccc(O)cc3)C(=O)N2[C@H]1C(=O)O` [AMOXICILLIN]: the AC50 in assay [1] was > 30 µM; in assay [2], > 30 µM; in assay [3] it was > 30 µM; in assay [4], > 10 µM.

For `COC(=O)[C@H](c1ccccc1Cl)N1CCc2sccc2C1` [CLOPIDOGREL], the AC50 in assay [2] is > 30 µM; in assay [3], > 30 µM; in assay [5], > 30 µM; in assay [4], > 10 µM.

Consider `CN1C[C@H](C(=O)N[C@]2(C)O[C@@]3(O)[C@@H]4CCCN4C(=O)[C@H](Cc4ccccc4)N3C2=O)C[C@@H]2c3cccc4[nH]cc(c34)C[C@H]21` [DIHYDROERGOTAMINE], for which the AC50 in assay [2] is > 30 µM; in assay [3], > 30 µM; in assay [5], > 30 µM; in assay [4], 0.0638 µM.

In the case of `Cc1cnc(NC(=O)C2=C(O)c3ccccc3S(=O)(=O)N2C)s1` [MELOXICAM], the AC50 in assay [2] is > 30 µM; in assay [3], > 30 µM; in assay [5] it was > 30 µM; in assay [4], > 10 µM.

For the molecule `COc1ccnc(C[S+]([O-])c2nc3ccc(OC(F)F)cc3[nH]2)c1OC` (centres undefined) [PANTOPRAZOLE], the AC50 was > 30 µM in assay [2], > 30 µM in assay [3], > 30 µM in assay [5] and > 10 µM in assay [4].

Turning to `CC(=O)S[C@@H]1CC2=CC(=O)CC[C@]2(C)[C@H]2CC[C@@]3(C)[C@@H](CC[C@@]34CCC(=O)O4)[C@H]12` [SPIRONOLACTONE], the AC50 in assay [2] is > 30 µM; in assay [3] it was > 30 µM; in assay [5] it was > 30 µM; in assay [4], > 10 µM.

Turning to `CC1(C)O[C@@H]2[C@@H](CO[C@@]3(COS(N)(=O)=O)OC(C)(C)O[C@@H]23)O1` [TOPIRAMATE], the AC50 in assay [2] was > 30 µM; in assay [3], > 30 µM; in assay [5], > 30 µM; in assay [6], > 10 µM; in assay [4], > 10 µM.
